# According to patent US7799805B2, “Piperidine carboxylic acid amide derivatives” (Actelion Pharmaceuticals Ltd., priority 2005, dated 2010):
# Target: T1, recombinant human renin (Homo sapiens, UniProt P00797)
# T1 sequence (P00797 67-406): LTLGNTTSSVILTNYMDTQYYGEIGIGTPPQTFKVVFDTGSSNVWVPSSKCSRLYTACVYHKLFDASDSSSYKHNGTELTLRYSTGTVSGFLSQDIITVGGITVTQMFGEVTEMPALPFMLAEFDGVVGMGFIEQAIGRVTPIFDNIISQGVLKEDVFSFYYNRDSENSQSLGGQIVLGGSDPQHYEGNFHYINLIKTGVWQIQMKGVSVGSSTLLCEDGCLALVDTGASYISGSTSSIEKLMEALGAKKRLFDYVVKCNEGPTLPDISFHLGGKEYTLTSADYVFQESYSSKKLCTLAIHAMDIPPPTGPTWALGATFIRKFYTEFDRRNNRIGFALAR
# Assay: Primary renin inhibition assay: IC50 in buffer, 384 well MTP (AngI quantified by EIA)
# Experimental: Enzyme Immuno Assay (EIA) to Estimate AngI Accumulation and Renin Inhibition
# 96 well MTP (MaxiSorp™, Nunc) were coated with 200 μl conjugate and blocked with 250 μl blocking solution as above, except that the blocking solution contained 3% BSA.
# 1.3 AngI-EIA in 384 well MTP
# The AngI (1-10)/BSA coated MTP were washed 3 times with wash buffer (PBS 1×, 0.01% Tween 20) and filled with 75 μl of primary antibody solution (anti-AngI antiserum, pre-diluted 1:10 in horse serum), diluted to a final concentration of 1:100,000 in assay buffer (PBS 1×, 1 mM EDTA, 0.1% BSA, pH 7.4). 5 μl of the renin reaction (or standards in assay buffer) (see below) were added to the primary antibody solution and the plates were incubated overnight at 4° C. After the incubation the plates were washed 3 times with wash buffer and incubated with secondary antibody [anti-rabbit IgG, linked to horseradish peroxidase (Amersham Bioscience, NA 934V), diluted 1:2,000 in wash buffer] for 2 h at rt. […]
# In the second step, the accumulated AngI is measured by an immunological assay (enzyme immuno assay, EIA). […]
# Test compounds were dissolved and diluted in 100% DMSO and 2.5 μl added to the premix, then incubated at 37° C. for 3 h. At the end of the incubation period, 5 μl of the renin reaction (or standards in assay buffer) were transferred into EIA assays (as described above) and AngI produced by renin was quantified.
row,SMILES,IC50
1,"O=C([C@H]1[C@H]2CNC[C@@H](C[C@H]1c1ccc(CCCOc3c(F)ccc(F)c3Cl)cc1)N2)N(Cc1cccc(Cl)c1Cl)C1CC1 (racemic) [Example 1, (rac.)-(1R*,5S*,6R*,7R*)-7-{4-[3-(2-Chloro-3,6-difluoro-phenoxy)-propyl]-phenyl}-3,9-diaza-bicyclo[3.3.1]nonane-6-carboxylic acid cyclopropyl-(2,3-dichloro-benzyl)-amide]",0.65 nM
2,"O=C([C@@H]1[C@@H](c2ccc(CCCOc3c(F)ccc(F)c3Cl)cc2)C[C@@H]2CNC[C@H]1N2)N(Cc1cccc(Cl)c1Cl)C1CC1 (racemic) [Example 2, (rac.)-(1R*,5S*,6R*,7S*)-7-{4-[3-(2-Chloro-3,6-difluoro-phenoxy)-propyl]-phenyl}-3,9-diaza-bicyclo[3.3.1]nonane-6-carboxylic acid cyclopropyl-(2,3-dichloro-benzyl)-amide]",0.19 nM
